Results published in patent US20230227411A1, “Benzimidazole Derivatives” (Hoffmann-La Roche Inc., priority 2020, published 2023).

Target: T1, human cGAS (residues 161-522) (Homo sapiens, UniProt Q8N884)
T1 construct: Recombinantly expressed purified human cGAS (residues 161-522) was used at 25 nM; made in house
Test: Malachite Green assay to measure cGAS activity
Assay type: biochemical
Details: coupled enzymatic assay, phosphate detection by Malachite Green; 25 nM cGAS, 80 μM ATP, 80 μM GTP, 100 nM ISD, 4 hour at RT
Method: Malachite Green Assay to Measure cGAS Activity
Compounds were tested for cGAS inhibition in a coupled enzymatic assay based on Phosphate detection by Malachite Green. Final assay conditions were 20 mM TRIS pH 7.5 (Applichem), 5 mM MgCl2 (Sigma) and 0.01% BSA (Sigma) supplemented with 80 μM ATP (Sigma), 80 μM GTP (Sigma) and 100 nM Interferon Stimulating DNA (ISD) (Microsynth). Recombinantly expressed purified human cGAS (residues 161-522) was used at 25 nM.
All compounds were prepared as 10 mM stock solutions in DMSO and a 16 pt dilution series in DMSO with a dilution factor of 2.5 was prepared. 1 μL of DMSO dilution series was transferred to 32.3 μL reaction buffer, mixed by pipetting up/down, spun for 1 minute at 3000 rpm and was visually inspected for precipitation. 5 μL of 3-fold enzyme stock solution were transferred to an empty 384-well Black/Clear Flat Bottom Polystyrene NBS (Corning) rows 3-24. Rows 1-2 were filled with assay buffer. Plates were spun 10 seconds at 1000 rpm (164×g). 5 μL of compound intermediate dilution was added and mixed by pipetting up/down to rows 3-24. Rows 1-2 were filled with 3.1% DMSO assay buffer. Plates were spun 10 seconds at 1000 rpm (164×g). 5 μL 3-fold Nucleotide/DNA mix was added to all wells to start the reaction. Plates were spun 10 seconds at 1000 rpm (164×g) and incubated for 4 hour at room temperature (RT) in the dark. 5 μL 4 U/mL PPase (Sigma) were added to all wells. Plates spun 10 seconds at 1000 rpm (164×g). 10 μL BioMol green Solution (Enzo Life Sciences) was added to all wells. Plates spun 10 seconds at 1000 rpm (164×g) and incubated 30 minutes at RT in the dark. Absorbance data was collected 620 nm on an EnVision Multilable Reader (Perkin Elmer) and the following measurement settings were used: excitation filter photometric was 620 nm; excitation from the top; measurement height was 1 mm; number of flashes was 30; number of flashes integrated was 1.
All plates are checked for abnormalities and outliers in the Blank Control (no protein, row 1) and the Neutral Control (no compound, row 2) are excluded using the 3*SD rule. Data was normalized to 0 and 100% by Blank and Neutral Control and each curve was fitted and judged using the 4 parameter logistic equation to determine the IC50 for cGAS inhibition.
Table 1 provides IC50 values (μM) for cGAS inhibition obtained for particular examples of the present invention as measured by the above-described assay.

T1 sequence (Q8N884 161-522): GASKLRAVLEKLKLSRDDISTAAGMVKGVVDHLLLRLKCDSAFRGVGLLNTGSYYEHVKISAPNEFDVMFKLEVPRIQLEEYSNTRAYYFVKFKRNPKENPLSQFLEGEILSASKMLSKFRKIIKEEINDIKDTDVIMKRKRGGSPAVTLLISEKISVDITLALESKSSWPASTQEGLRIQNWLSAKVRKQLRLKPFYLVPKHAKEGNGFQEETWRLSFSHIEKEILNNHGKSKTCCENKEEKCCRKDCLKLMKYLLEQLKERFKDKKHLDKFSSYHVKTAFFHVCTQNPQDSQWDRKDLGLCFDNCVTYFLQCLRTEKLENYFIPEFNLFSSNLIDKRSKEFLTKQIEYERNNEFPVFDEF

Q: How did the IC50 turn out when `Cc1ccc(-c2cc(C(=O)O)c3c(c2)ncn3Cc2ccccc2)c(Cl)c1` [Example 15, 1-Benzyl-5-(2-chloro-4-methylphenyl)-1H-benzo[d]imidazole-7-carboxylic acid] was run?
A: 2.41 µM

Q: `CCn1cnc2cc(-c3cc(F)c(C)cc3Cl)cc(C(=O)O)c21` [Example 11, 5-(2-Chloro-5-fluoro-4-methylphenyl)-1-ethyl-1H-benzo[d]imidazole-7-carboxylic acid] was tested. Which IC50 did it give?
A: 1.93 µM

Q: For `Cc1ccc(-c2cc(C(=O)O)c3c(c2)ncn3CC(F)(F)F)c(Cl)c1` [Example 13, 5-(2-Chloro-4-methylphenyl)-1-(2,2,2-trifluoroethyl)-1H-benzo[d]imidazole-7-carboxylic acid], which IC50 is on record?
A: 3.29 µM

Q: How did the IC50 turn out when `CCn1cnc2cc(-c3ccc(C)cc3Cl)cc(C(=O)O)c21` [Example 12, 5-(2-Chloro-4-methylphenyl)-1-ethyl-1H-benzo[d]imidazole-7-carboxylic acid] was run?
A: 2.81 µM

Q: With `Cc1ccc(-c2cc(C(=O)O)c3c(c2)ncn3Cc2ccccn2)c(Cl)c1` [Example 7, 6-(2-Chloro-4-methylphenyl)-3-(pyridin-2-ylmethyl)benzimidazole-4-carboxylic acid] as the molecule, how does the IC50 read?
A: 1.76 µM

Q: `Cc1ccc(-c2cc(C(=O)O)c3c(c2)ncn3C2CC2)c(Cl)c1` [Example 10, 5-(2-Chloro-4-methylphenyl)-1-cyclopropyl-1H-benzo[d]imidazole-7-carboxylic acid] was tested. Which IC50 did it give?
A: 4.79 µM

Q: For `Cc1ccc(-c2cc(C(=O)O)c3c(c2)ncn3-c2ccccc2)c(Cl)c1` [Example 1, 5-(2-Chloro-4-methylphenyl)-1-phenyl-1H-benzo[d]imidazole-7-carboxylic acid], which IC50 is on record?
A: 1.12 µM

Q: For `Cc1ccc(-c2cc(C(=O)O)c3c(c2)ncn3CCN(C)C)c(Cl)c1` [Example 8, 5-(2-Chloro-4-methylphenyl)-1-(2-(dimethylamino)ethyl)-1H-benzo[d]imidazole-7-carboxylic acid], which IC50 is on record?
A: 2.02 µM

Q: With `Cc1ccc(-c2cc(C(=O)O)c3c(c2)ncn3CCc2ccccc2)c(Cl)c1` [Example 14, 5-(2-Chloro-4-methylphenyl)-1-phenethyl-1H-benzo[d]imidazole-7-carboxylic acid] as the molecule, how does the IC50 read?
A: 1.86 µM

Q: `Cc1ccc(-c2cc(C(=O)O)c3c(c2)ncn3Cc2cccc(Cl)c2)c(Cl)c1` [Example 4, 5-(2-Chloro-4-methylphenyl)-1-(3-chlorobenzyl)-1H-benzo[d]imidazole-7-carboxylic acid] was tested. Which IC50 did it give?
A: 2.59 µM

Q: Which IC50 does the source give for `Cc1ccc(-c2cc(C(=O)O)c3c(c2)ncn3Cc2ccncc2)c(Cl)c1` [Example 5, 5-(2-Chloro-4-methylphenyl)-1-(pyridin-4-ylmethyl)-1H-benzo[d]imidazole-7-carboxylic acid] here?
A: 0.87 µM

Q: `Cc1ccc(-c2cc(C(=O)O)c3c(c2)ncn3CCCNS(C)(=O)=O)c(Cl)c1` [Example 3, 5-(2-Chloro-4-methylphenyl)-1-(3-(methylsulfonamido)propyl)-1H-benzo[d]imidazole-7-carboxylic acid] was tested. Which IC50 did it give?
A: 1.34 µM

Q: With `COCCn1cnc2cc(-c3ccc(C)cc3Cl)cc(C(=O)O)c21` [Example 9, 5-(2-Chloro-4-methylphenyl)-1-(2-methoxyethyl)-1H-benzo[d]imidazole-7-carboxylic acid] as the molecule, how does the IC50 read?
A: 3.04 µM

Q: Which IC50 does the source give for `Cc1ccc(-c2cc(C(=O)O)c3c(c2)ncn3Cc2cccnc2)c(Cl)c1` [Example 6, 5-(2-Chloro-4-methylphenyl)-1-(pyridin-3-ylmethyl)-1H-benzo[d]imidazole-7-carboxylic acid] here?
A: 2.07 µM

Q: `CC(=O)NCCCn1cnc2cc(-c3ccc(C)cc3Cl)cc(C(=O)O)c21` [Example 2, 1-(3-Acetamidopropyl)-5-(2-chloro-4-methylphenyl)-1H-benzo[d]imidazole-7-carboxylic acid] was tested. Which IC50 did it give?
A: 2.34 µM
